Values after ≈ are worked out from the molar mass of the structure shown. Active and inactive are the calls of the source. No cut-off for these calls is given here.
Tests used:
Candida albicans [1] = assay: Antifungal activity against Candida albicans GIM 2.194 assessed as inhibition of fungal growth by CLSI M27-A3 guidelines based method; format: functional
[2] = Half-life in Sprague-Dawley rat at 10 mg/kg, po by LC-MS/MS analysis; format: ADME, organism-based; settings: in vivo
Candida albicans [3] = assay: Fungicidal activity fluconazole and iodiconazole resistant Candida albicans clinical isolate 17# assessed as reduction in viable colony count at 0.5 microg/ml measured within 24 hrs by time-kill kinetics assay; format: functional, organism-based; settings: dose 0.5 µg/ml
Candida albicans [4] = assay: Antibiofilm activity against Candida albicans CPCC400616 assessed as inhibition of morphological transformation by measuring disappearance of mycelium at 2 microg/ml incubated for 4 hrs by microscopic photograph analysis; format: functional, organism-based; settings: dose 2.0 µg/ml
[5] = Cytotoxicity against human OVCAR-3 cells assessed as inhibition of cell growth incubated for 72 hrs by MTT assay; format: toxicity, cell-based
[6] = Cytotoxicity against HUVEC cells assessed as inhibition of cell growth incubated for 72 hrs by MTT assay; format: toxicity, cell-based; settings: human
Candida albicans [7] = assay: Antifungal activity against Candida albicans SC5314 assessed as inhibition of fungal growth by CLSI M27-A3 guidelines based method; format: functional
[8] = MRT(0 to t) in Sprague-Dawley rat at 3 mg/kg, iv by LC-MS/MS analysis; format: ADME, organism-based; settings: in vivo
Candida albicans [9] = assay: Fungicidal activity fluconazole and iodiconazole resistant Candida albicans clinical isolate 17# assessed as reduction in viable colony count measured for 24 hrs by time-kill kinetics assay; format: functional, organism-based
Candida albicans [10] = assay: Selectivity ratio of MFC for fungicidal activity against fluconazole and iodiconazole resistant Candida albicans clinical isolate 17# to MIC80 for antifungal activity against fluconazole and iodiconazole resistant Candida albicans clinical isolate 17#; format: functional
[11] = Selectivity index, ratio of IC50 for HEK293T cells to MIC80 for Candida albicans SC5314; format: toxicity, cell-based; settings: human, HEK293T cells versus Candida albicans SC5314; read-out: Selectivity Index
[12] = MRT (0 to t) in Sprague-Dawley rat at 10 mg/kg, po by LC-MS/MS analysis; format: ADME, organism-based; settings: in vivo
Candida albicans [13] = assay: Effect on sterol composition in Candida albicans SC5314 assessed as 14alpha-demethyllanosterol content at 0.0625 microg/ml measured after 16 hrs by GC-MS analysis (reference value: 1.98 %); format: functional; settings: dose 0.0625 µg/ml
Nakaseomyces glabratus = assay: Antifungal activity against Candida glabrata assessed as inhibition of fungal growth by CLSI M27-A3 guidelines based method; format: functional
[14] = Oral bioavailability in Sprague-Dawley rat at 10 mg/kg by LC-MS/MS analysis; format: ADME, organism-based; settings: in vivo
Candida albicans [15] = assay: Antifungal activity against fluconazole-resistant Candida albicans clinical isolate 103 assessed as inhibition of fungal growth by CLSI M27-A3 guidelines based method; format: functional
[16] = Half-life in Sprague-Dawley rat at 3 mg/kg, iv by LC-MS/MS analysis; format: ADME, organism-based; settings: in vivo
Candida tropicalis = assay: Antifungal activity against Candida tropicalis GIM 2.183 assessed as inhibition of fungal growth by CLSI M27-A3 guidelines based method; format: functional
Candida albicans [17] = assay: Antifungal activity against fluconazole-resistant Candida albicans clinical isolate 311 assessed as inhibition of fungal growth by CLSI M27-A3 guidelines based method; format: functional
Pichia kudriavzevii = assay: Antifungal activity against Candida krusei GIM 2.1 assessed as inhibition of fungal growth by CLSI M27-A3 guidelines based method; format: functional
Candida albicans [18] = assay: Effect on sterol composition in Candida albicans SC5314 assessed as obtusifoliol content at 0.0625 microg/ml measured after 16 hrs by GC-MS analysis relative to control; format: functional; settings: dose 0.0625 µg/ml
Candida albicans [19] = assay: Antifungal activity against fluconazole-resistant Candida albicans CaR assessed as inhibition of fungal growth by CLSI M27-A3 guidelines based method; format: functional
Candida albicans [20] = assay: Effect on sterol composition in Candida albicans SC5314 assessed as lanosterol content at 0.0625 microg/ml measured after 16 hrs by GC-MS analysis relative to control; format: functional; settings: dose 0.0625 µg/ml
Candida albicans [21] = assay: Fungicidal activity against Candida albicans SC5314 incubated for 48 hrs by SDA plate based method; format: functional
Candida albicans [22] = assay: Antifungal activity against fluconazole-resistant Candida albicans clinical isolate 904 assessed as inhibition of fungal growth by CLSI M27-A3 guidelines based method; format: functional
Candida albicans [23] = assay: Effect on sterol composition in Candida albicans SC5314 assessed as eburicol content at 0.0625 microg/ml measured after 16 hrs by GC-MS analysis relative to control; format: functional; settings: dose 0.0625 µg/ml
Candida albicans [24] = assay: Fungicidal activity against fluconazole and iodiconazole resistant Candida albicans clinical isolate 17# incubated for 48 hrs by SDA plate based method; format: functional
[25] = Cmax in Sprague-Dawley rat at 3 mg/kg, iv by LC-MS/MS analysis; format: ADME, organism-based; settings: in vivo
Candida albicans [26] = assay: Effect on sterol composition in Candida albicans SC5314 assessed as other sterols content at 0.0625 microg/ml measured after 16 hrs by GC-MS analysis (reference value: 1.06 %); format: functional; settings: dose 0.0625 µg/ml
[27] = AUC (0 to t) in Sprague-Dawley rat at 10 mg/kg, po by LC-MS/MS analysis; format: ADME, organism-based; settings: in vivo
Candida albicans [28] = assay: Antibiofilm activity against fluconazole-resistant Candida albicans CPCC400616 assessed as inhibition of metabolic activity of biofilm measured after 48 hrs by XTT reduction assay; format: functional
Candida albicans [29] = assay: Antifungal activity against fluconazole-resistant Candida albicans clinical isolate 901 assessed as inhibition of fungal growth by CLSI M27-A3 guidelines based method; format: functional
[30] = Cmax in Sprague-Dawley rat at 10 mg/kg, po by LC-MS/MS analysis; format: ADME, organism-based; settings: in vivo
Candida albicans [31] = assay: Antifungal activity against fluconazole-resistant Candida albicans clinical isolate 100 assessed as inhibition of fungal growth by CLSI M27-A3 guidelines based method; format: functional
[32] = Tmax in Sprague-Dawley rat at 3 mg/kg, iv by LC-MS/MS analysis; format: ADME, organism-based; settings: in vivo
[33] = Tmax in Sprague-Dawley rat at 10 mg/kg, po by LC-MS/MS analysis; format: ADME, organism-based; settings: in vivo
Candida parapsilosis = assay: Antifungal activity against Candida parapsilosis GIM 2.190 assessed as inhibition of fungal growth by CLSI M27-A3 guidelines based method; format: functional; settings: Lodderomyces parapsilosis
Candida albicans [34] = assay: Antifungal activity against fluconazole and iodiconazole resistant Candida albicans clinical isolate 17# assessed as inhibition of fungal growth by CLSI M27-A3 guidelines based method; format: functional
Candida albicans [35] = assay: Effect on sterol composition in Candida albicans SC5314 assessed as ergosterol content at 0.0625 microg/ml measured after 16 hrs by GC-MS analysis (reference value: 96.96 %); format: functional; settings: dose 0.0625 µg/ml
Candida albicans [36] = assay: Antibiofilm activity against fluconazole-resistant Candida albicans CPCC400616 assessed as inhibition of metabolic activity of biofilm measured after 6 hrs by XTT reduction assay; format: functional
[37] = Cytotoxicity against HEK293T cells assessed as inhibition of cell growth incubated for 72 hrs by MTT assay; format: toxicity, cell-based, HEK-293T; settings: human
Candida albicans [38] = assay: Antibiofilm activity against fluconazole-resistant Candida albicans CPCC400616 assessed as inhibition of metabolic activity of biofilm measured after 24 hrs by XTT reduction assay; format: functional
[39] = AUC (0 to t) in Sprague-Dawley rat at 3 mg/kg, iv by LC-MS/MS analysis; format: ADME, organism-based; settings: in vivo
Candida albicans [40] = assay: Selectivity ratio of MFC for fungicidal activity against Candida albicans SC5314 to MIC80 for antifungal activity against Candida albicans SC5314; format: functional
[41] = Cytotoxicity against human NCI-H460 cells assessed as inhibition of cell growth incubated for 72 hrs by MTT assay; format: toxicity, cell-based
[42] = Apparent volume of distribution in Sprague-Dawley rat at 3 mg/kg, iv by LC-MS/MS analysis; format: ADME, organism-based; settings: in vivo
Candida albicans [43] = assay: Antifungal activity against fluconazole-resistant Candida albicans clinical isolate 632 assessed as inhibition of fungal growth by CLSI M27-A3 guidelines based method; format: functional

In the case of CN(Cc1ccc(N2CCN(Cc3ccc(F)cc3Br)CC2)cc1)CC(O)(Cn1cncn1)c1ccc(F)cc1F (configuration not stated), the MIC80 (Candida albicans [1]) is reported as 0.013 µg/mL (≈ 0.0207 µM), the half-life [2] is reported as 1.12 h and the Activity (Candida albicans [3]) is reported as “Active”. For the same compound, the Activity (Candida albicans [4]) was “Active”, the IC50 at 72 h [5] was 7.72 µM and the IC50 at 72 h [6] was greater than 10 µM. For the same compound, the MIC80 (Candida albicans [7]) was 0.006 µg/mL (≈ 0.00953 µM), the MRT last [8] was 0.478 h and the Activity (Candida albicans [9]) was “Dose-dependent-effect; Much More Effective Than Iodiconazole”. The Selectivity ratio (Candida albicans [10]) was 1, the Selectivity ratio [11] was 798 and the MRT last [12] was 1.12 h. For the same compound, the Activity (Candida albicans [13]) was 2.78%, the MIC80 (Nakaseomyces glabratus) was 0.1 µg/mL (≈ 0.159 µM) and the bioavailability [14] was 1.66%. For the same compound, the MIC80 (Candida albicans [15]) was 4 µg/mL (≈ 6.35 µM), the t1/2 [16] was 0.37 h and the MIC80 (Candida tropicalis) was 0.006 µg/mL (≈ 0.00953 µM). The MIC80 (Candida albicans [17]) was 8 µg/mL (≈ 12.7 µM), the MIC80 (Pichia kudriavzevii) was 0.1 µg/mL (≈ 0.159 µM) and the Activity (Candida albicans [18]) was 14.81%. It also gave an MIC80 (Candida albicans [19]) of 0.063 µg/mL (≈ 0.1 µM), an Activity (Candida albicans [20]) of 10.55% and an MFC (Candida albicans [21]) of 0.031 µg/mL (≈ 0.0492 µM). For the same compound, the MIC80 (Candida albicans [22]) was 8 µg/mL (≈ 12.7 µM), the Activity (Candida albicans [23]) was 65.56% and the MFC (Candida albicans [24]) was 0.063 µg/mL (≈ 0.1 µM). The Cmax [25] was 535 ng/mL, the Activity (Candida albicans [26]) was 4.47% and the AUC(0-t) [27] was 14.4 ng·h/mL. It also gave an MIC50 (Candida albicans [28]) of 8 µg/mL (≈ 12.7 µM), an MIC80 (Candida albicans [29]) greater than 64 µg/mL and a Cmax [30] of 10.6 ng/mL. The MIC80 (Candida albicans [31]) was 2 µg/mL (≈ 3.18 µM), the Tmax [32] was 4.98 min and the Tmax [33] was 1 h. The MIC80 (Candida parapsilosis) was 0.006 µg/mL (≈ 0.00953 µM), the MIC80 (Candida albicans [34]) was 0.063 µg/mL (≈ 0.1 µM) and the Activity (Candida albicans [35]) was 1.83%. The MIC50 (Candida albicans [36]) was 0.5 µg/mL (≈ 0.794 µM), the IC50 at 72 h [37] was 4.99 µM and the MIC50 (Candida albicans [38]) was 2 µg/mL (≈ 3.18 µM). It also gave an AUCt [39] of 324 ng·h/mL, a Selectivity ratio (Candida albicans [40]) of 5 and an IC50 at 72 h [41] of 5.22 µM. It also gave a Vz [42] of 4.89 L/kg and an MIC80 (Candida albicans [43]) of 8 µg/mL (≈ 12.7 µM).
